Among the test systems are SF-268 CNS; 786-0 renal; SK-OV-3 ovarian; COLO 205 colon; SK-MEL-28 melanoma; UO-31 renal; NCI-H460 lung; RPMI-8226 leukemia; HOP-92 NSCLC; HOP-62 NSCLC.
Experiment in all cases: NCI anticancer screen, dose series, 48 h

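A five-concentration, 48-hour dose response in 96-well plates underlies each endpoint, interpolated linearly between surrounding concentrations. GI50: concentration for 50% inhibition of growth. TGI denotes the concentration required for complete inhibition of growth.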

For the molecule `COc1ccc(CC2NCCc3c2[nH]c2ccccc32)cc1` (stereo not drawn), the TGI with SF-268 CNS is over 100 µM; in the test with 786-0 renal it was over 100 µM; in the test on SK-OV-3 ovarian it was over 100 µM; with COLO 205 colon, 40.6 µM; with SK-MEL-28 melanoma, over 100 µM; in the test on UO-31 renal it was over 100 µM. Also, the TGI with NCI-H460 lung was over 100 µM; in the test on RPMI-8226 leukemia, over 100 µM; in the test on HOP-92 NSCLC it was 58.6 µM; in the test with HOP-62 NSCLC, over 100 µM.

For the molecule `CCCC(=O)Nc1cc2c3c(c1)CCCN3CCC2`, the TGI with SF-268 CNS, with 786-0 renal, in the test with SK-OV-3 ovarian, in the test on COLO 205 colon, in the test with SK-MEL-28 melanoma and in the test with RPMI-8226 leukemia was over 10 µM in each case. In addition, the TGI in the test on HOP-92 NSCLC and in the test on HOP-62 NSCLC was over 10 µM throughout.

Consider `CN(C)CC1CCCC/C1=N/OC(=O)c1ccc(Cl)cc1` (stereo not drawn), for which the TGI in the test with SF-268 CNS, in the test with 786-0 renal, in the test on SK-OV-3 ovarian, in the test with COLO 205 colon, with SK-MEL-28 melanoma and in the test on UO-31 renal was over 100 µM each time. The TGI with NCI-H460 lung, in the test with RPMI-8226 leukemia, in the test on HOP-92 NSCLC and in the test with HOP-62 NSCLC was over 100 µM each time.

Regarding `N#CC(C(=O)C(=O)C(C#N)c1ccc(Br)cc1)c1ccc(Br)cc1` (stereo not drawn), the TGI is 32.4 µM with SF-268 CNS; 27 µM with 786-0 renal; 33.1 µM in the test with SK-OV-3 ovarian; 31.4 µM in the test with COLO 205 colon; 28.9 µM with SK-MEL-28 melanoma; 29.9 µM in the test on UO-31 renal. In addition, the TGI with NCI-H460 lung is 30.5 µM; in the test with RPMI-8226 leukemia it was over 100 µM; in the test on HOP-92 NSCLC, 26.4 µM; in the test with HOP-62 NSCLC, 27.2 µM.

As for `C1=CC(N(c2ccccc2)C2C=CCCC2)CCC1` (stereo not drawn), the TGI in the test on SF-268 CNS, in the test with 786-0 renal, in the test on SK-OV-3 ovarian, in the test on COLO 205 colon, with SK-MEL-28 melanoma and in the test with NCI-H460 lung was over 100 µM in each case. The TGI with RPMI-8226 leukemia and in the test with HOP-92 NSCLC was over 100 µM in each case.

`COc1cc2c(cc1OCCCNC(=O)c1cccc3c(=O)c4ccccc4[nH]c13)N=C[C@@H]1CCCN1C2=O`: the GI50 with SF-268 CNS is under 0.0216 µM; in the test on 786-0 renal, under 0.01 µM; in the test on SK-OV-3 ovarian, 5.58 µM; in the test on COLO 205 colon it was under 0.01 µM; in the test with SK-MEL-28 melanoma, under 0.01 µM; in the test on HOP-92 NSCLC, under 0.01 µM. In the test with HOP-62 NSCLC, the GI50 was under 0.01 µM. The TGI in the test on SF-268 CNS was 2.07 µM; in the test with 786-0 renal it was 24 µM; in the test with SK-OV-3 ovarian, over 100 µM; in the test on COLO 205 colon it was 0.0437 µM; in the test on SK-MEL-28 melanoma, 2.89 µM; in the test on UO-31 renal, 16.9 µM. Further, the values for the TGI in the test on NCI-H460 lung, in the test with HOP-92 NSCLC and in the test with HOP-62 NSCLC were 3.76 µM, 49.6 µM and 0.399 µM, respectively.

With `C#C[C@]1(O)CCC2C3CCc4cc(O)ccc4C3CC[C@@]21C` (stereo partly drawn), the GI50 was 5.23 µM in the test with SF-268 CNS; 5.08 µM in the test with 786-0 renal; 3.45 µM in the test on SK-OV-3 ovarian; 3.86 µM in the test with COLO 205 colon; 5.85 µM in the test on SK-MEL-28 melanoma; 6.81 µM in the test on UO-31 renal. For the same molecule, the GI50 with NCI-H460 lung was 4.02 µM; with HOP-92 NSCLC, 5.91 µM; in the test on HOP-62 NSCLC, 4.34 µM. In addition, the TGI is 32.7 µM with SF-268 CNS; 21.9 µM in the test with 786-0 renal; 49.6 µM in the test with SK-OV-3 ovarian; 14 µM in the test on COLO 205 colon; 19.7 µM in the test on SK-MEL-28 melanoma; 28.8 µM in the test on UO-31 renal. Moreover, the TGI was found to be 17.8 µM in the test on NCI-H460 lung, 19.9 µM in the test with HOP-92 NSCLC and 16.6 µM in the test on HOP-62 NSCLC.

With `Cc1cc(Cl)ccc1NC(=O)C(=O)Cc1nc2ccccc2o1`, the TGI with SF-268 CNS, in the test with 786-0 renal, with SK-OV-3 ovarian, with COLO 205 colon, in the test on SK-MEL-28 melanoma and in the test on UO-31 renal was over 100 µM each time. The TGI in the test on NCI-H460 lung, in the test with RPMI-8226 leukemia, in the test on HOP-92 NSCLC and in the test with HOP-62 NSCLC was over 100 µM each time.

As for `Cn1cc(C2=C(c3cn(CCCCO)c4ccccc34)C(=O)NC2=O)c2ccccc21`, the GI50 was 8.63 µM in the test with SF-268 CNS; 8.81 µM in the test with 786-0 renal; 8.23 µM in the test with SK-OV-3 ovarian; 7.28 µM in the test with COLO 205 colon; 12.6 µM in the test with SK-MEL-28 melanoma; 6.33 µM in the test on UO-31 renal. The GI50 in the test with NCI-H460 lung is 8.41 µM; with RPMI-8226 leukemia, 9.23 µM; with HOP-92 NSCLC, 17.1 µM; with HOP-62 NSCLC, 9.95 µM. For the same molecule, the TGI in the test with SF-268 CNS was over 25 µM; with 786-0 renal, over 25 µM; in the test on SK-OV-3 ovarian it was over 25 µM; in the test with COLO 205 colon, over 19.5 µM; in the test with SK-MEL-28 melanoma, over 25 µM; in the test on UO-31 renal, over 20.1 µM. Besides, the TGI with NCI-H460 lung, in the test on RPMI-8226 leukemia, with HOP-92 NSCLC and in the test with HOP-62 NSCLC was over 25 µM each time.

Regarding `Cc1ccc(NC(=O)CC2CC2)cc1-c1ccc(C(=O)NCC2CC2)cc1`, the GI50 in the test on SF-268 CNS, with 786-0 renal, with SK-OV-3 ovarian, in the test with COLO 205 colon, in the test on SK-MEL-28 melanoma and in the test on UO-31 renal was over 25 µM each time. The GI50 with NCI-H460 lung was over 25 µM; with RPMI-8226 leukemia it was over 25 µM; in the test on HOP-92 NSCLC it was 8.45 µM; with HOP-62 NSCLC it was over 25 µM. Further, the TGI in the test with SF-268 CNS, in the test on 786-0 renal, in the test with SK-OV-3 ovarian, in the test with COLO 205 colon, in the test with SK-MEL-28 melanoma and in the test on UO-31 renal was over 25 µM each time. Further, the TGI in the test on NCI-H460 lung, in the test on RPMI-8226 leukemia, with HOP-92 NSCLC and in the test with HOP-62 NSCLC was over 25 µM each time.

Regarding `COc1ccc2c(c1)C(=O)c1c-2c(N2CCN(C(=O)CNCCNCCO)CC2)nc2ccccc12`, the GI50 was 2.97 µM with SF-268 CNS; 1.77 µM in the test with 786-0 renal; 13.7 µM in the test with SK-OV-3 ovarian; 2.17 µM with COLO 205 colon; 2.02 µM with SK-MEL-28 melanoma; 1.89 µM in the test on UO-31 renal. The GI50 in the test with NCI-H460 lung was 1.94 µM; in the test with RPMI-8226 leukemia it was 2.04 µM; in the test on HOP-92 NSCLC it was 2.47 µM. Besides, the TGI with SF-268 CNS turned out to be 9.38 µM; in the test with 786-0 renal, 3.34 µM; in the test on SK-OV-3 ovarian, 28.2 µM; in the test with COLO 205 colon, 4.19 µM; in the test on SK-MEL-28 melanoma, 3.54 µM; with UO-31 renal, 4.54 µM. The TGI in the test with NCI-H460 lung is 4.14 µM; in the test with RPMI-8226 leukemia, 4.68 µM; in the test on HOP-92 NSCLC it was 9.68 µM.

The values are drawn from PubChem BioAssay (NCI).
